In patent US9540379B2 (priority 2011, dated 2017):
Where two headings read alike, the source gives them in different places.

Assays:
PDE10A [1] = molecular target: T1, PDE10A (Homo sapiens (Human), UniProt Q9Y233); assay: biochemical
Procedure: (§1) Inhibition of Recombinant PDE10A (Expressed in Baculovirus/SF21 Cells)
(§2) PDE activity was determined in a one step procedure in microtiter plates. The reaction mixture of 100 μl contained 50 mM Tris-HCl/5 mM MgCl2 buffer (pH=7.4, Sigma, Deisenhofen, Germany; Merck, Darmstadt, Germany) 0.1 μM [3H]-cAMP (PerkinElmer, Shelton, USA) and the enzyme. Non-specific enzyme activity was determined without the enzyme.
(§3) The reaction was initiated by addition of the substrate solution and was carried out at 37° C. for 30 minutes. Enzymatic activity then was stopped by addition of 25 μl Ysi-SPA-beads (PerkinElmer, Shelton, USA). One h later the mixture was measured in a liquid scintillation counter for microtiter plates (Microbeta Trilux). The Biomek 2000 (Beckman) was used routinely for pipetting of the incubation mixture. […] For determination of IC50 values the Hill-plot, 2-parameter-model, was used.

PDE10A [2] = molecular target: T1, PDE10A; conditions: read-out: Inhibition of PDE10A, IC50
Procedure: as §1, §2, §3

T1 sequence (Q9Y233 other isoform, or with tags, fused parts or gaps): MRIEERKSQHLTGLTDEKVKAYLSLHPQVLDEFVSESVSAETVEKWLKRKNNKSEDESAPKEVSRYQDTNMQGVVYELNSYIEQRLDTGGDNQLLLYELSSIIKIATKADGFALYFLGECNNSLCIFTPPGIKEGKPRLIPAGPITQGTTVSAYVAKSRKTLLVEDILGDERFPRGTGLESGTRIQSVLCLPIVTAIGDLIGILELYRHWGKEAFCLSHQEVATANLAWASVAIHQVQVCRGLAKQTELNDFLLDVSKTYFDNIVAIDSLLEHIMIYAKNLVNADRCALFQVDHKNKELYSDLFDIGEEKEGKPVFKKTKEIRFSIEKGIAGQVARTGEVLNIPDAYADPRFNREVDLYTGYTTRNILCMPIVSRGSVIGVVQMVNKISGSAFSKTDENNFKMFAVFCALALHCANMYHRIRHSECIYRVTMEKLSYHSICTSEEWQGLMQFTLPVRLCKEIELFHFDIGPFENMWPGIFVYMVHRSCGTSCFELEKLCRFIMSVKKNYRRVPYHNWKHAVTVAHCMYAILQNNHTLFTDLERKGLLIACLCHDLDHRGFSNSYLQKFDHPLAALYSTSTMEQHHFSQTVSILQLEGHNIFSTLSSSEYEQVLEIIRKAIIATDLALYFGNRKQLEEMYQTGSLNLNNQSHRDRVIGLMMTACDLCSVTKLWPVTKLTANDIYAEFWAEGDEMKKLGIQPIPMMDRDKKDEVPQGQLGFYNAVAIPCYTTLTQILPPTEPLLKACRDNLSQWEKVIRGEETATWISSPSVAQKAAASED

| SMILES | IC50 (PDE10A [1]) | IC50 (PDE10A [2]) |
| --- | --- | --- |
| Cc1nc2cc(Cl)ccc2n2c(-c3cc(OCCCC(F)(F)F)ccc3Cl)nnc12 [Example 27, 7-Chloro-1-[2-chloro-5-(4,4,4-trifluoro-butoxy)-phenyl]-4-methyl-[1,2,4]triazolo[4,3-a]quinoxaline] | > 1000 nM |  |
| COCCOc1ccc(F)c(-c2nnc3cnc4cc(Cl)ccc4n23)c1 [Example 29, 7-Chloro-1-[2-fluoro-5-(2-methoxy-ethoxy)-phenyl]-[1,2,4]triazolo[4,3-a]quinoxaline] | > 1000 nM |  |
| CSc1ncccc1-c1nnc2c(C)nc3cc(C(F)(F)F)ccc3n12 [Example 69, 4-Methyl-1-(2-methylsulfanyl-pyridin-3-yl)-7-trifluoromethyl-[1,2,4]triazolo[4,3-a]quinoxaline] | > 1000 nM |  |
| Cc1nc2cc(C(F)(F)F)ccc2n2c(-c3c(F)cccc3F)nnc12 [Example 70, 1-(2,6-Difluoro-phenyl)-4-methyl-7-trifluoromethyl-[1,2,4]triazolo[4,3-a]quinoxaline] | 77 nM |  |
| COc1ccc2c(c1)nc(C)c1nnc(-c3c(F)cccc3F)n12 [Example 75, 1-(2,6-Difluoro-phenyl)-7-methoxy-4-methyl-[1,2,4]triazolo[4,3-a]quinoxaline] | 334 nM |  |
| Cc1nc2cc(OCc3ccc(F)cc3)ccc2n2c(-c3ccccc3Cl)nnc12 [Example 77, 1-(2-Chloro-phenyl)-7-(4-fluoro-benzyloxy)-4-methyl-[1,2,4]triazolo[4,3-a]quinoxaline] | 118 nM |  |
| Cc1nc2cc(OCc3ccc4ccccc4n3)ccc2n2c(-c3ccccc3Cl)nnc12 [Example 79, 1-(2-Chloro-phenyl)-4-methyl-7-(quinolin-2-ylmethoxy)-[1,2,4]triazolo[4,3-a]quinoxaline] |  | 1 nM |
| Cc1nc2ccc(OCc3ccc4ccccc4n3)cc2n2c(-c3ccccc3Cl)nnc12 [Example 80, 1-(2-Chloro-phenyl)-4-methyl-8-(quinolin-2-ylmethoxy)-[1,2,4]triazolo[4,3-a]quinoxaline] |  | 10 nM |
| CC(=O)OCCCCOc1ccc(Cl)c(-c2nnc3c(C)nc4ccccc4n23)c1 [Example 89, Acetic acid 4-[4-chloro-3-(4-methyl-[1,2,4]triazolo[4,3-a]quinoxalin-1-yl)-phenoxy]-butyl ester] |  | > 1000 nM |
| Cc1nc2ccccc2n2c(-c3cc(OCCN4CCOCC4)ccc3Cl)nnc12 [Example 91, 1-[2-Chloro-5-(2-morpholin-4-yl-ethoxy)-phenyl]-4-methyl-[1,2,4]triazolo[4,3-a]quinoxaline] |  | > 1000 nM |
| Cc1nc2ccccc2n2c(-c3cc(OCC(=O)c4ccccn4)ccc3Cl)nnc12 [Example 93, 2-[4-Chloro-3-(4-methyl-[1,2,4]triazolo[4,3-a]quinoxalin-1-yl)-phenoxy]-1-pyridin-2-yl-ethanone] |  | > 1000 nM |
| Cc1nc2ccccc2n2c(-c3cc(OCCN4CCN(C)CC4)ccc3Cl)nnc12 [Example 94, 1-{2-Chloro-5-[2-(4-methyl-piperazin-1-yl)-ethoxy]-phenyl}-4-methyl-[1,2,4]triazolo[4,3-a]quinoxaline] | > 1000 nM |  |
| Cc1nc2ccccc2n2c(-c3cc(OCCN4CCCCC4)ccc3Cl)nnc12 [Example 95, 1-[2-Chloro-5-(2-piperidin-1-yl-ethoxy)-phenyl]-4-methyl-[1,2,4]triazolo[4,3-a]quinoxaline] |  | > 1000 nM |
| Cc1nc2ccccc2n2c(-c3cc(OCCN4CCCC4)ccc3Cl)nnc12 [Example 96, 1-[2-Chloro-5-(2-pyrrolidin-1-yl-ethoxy)-phenyl]-4-methyl-[1,2,4]triazolo[4,3-a]quinoxaline] |  | > 1000 nM |
| Cc1nc2ccccc2n2c(-c3cc(OCCC4CCOCC4)ccc3Cl)nnc12 [Example 97, 1-{2-Chloro-5-[2-(tetrahydro-pyran-4-yl)-ethoxy]-phenyl}-4-methyl-[1,2,4]triazolo[4,3-a]quinoxaline] |  | > 1000 nM |
| Cc1nc2ccccc2n2c(-c3cc(OCC(C)O)ccc3Cl)nnc12 (centres unmarked) [Example 100, 1-[4-Chloro-3-(4-methyl-[1,2,4]triazolo[4,3-a]quinoxalin-1-yl)-phenoxy]-propan-2-ol] |  | 784 nM |
| Cc1nc2ccc(Cl)cc2n2c(-c3cc(OCCCO)ccc3Cl)nnc12 [Example 101, 3-[4-Chloro-3-(8-chloro-4-methyl-[1,2,4]triazolo[4,3-a]quinoxalin-1-yl)-phenoxy]-propan-1-ol] |  | 319 nM |
| Cc1nc2ccc(Cl)cc2n2c(-c3cc(OCC(C)O)ccc3Cl)nnc12 (centres unmarked) [Example 102, 1-[4-Chloro-3-(8-chloro-4-methyl-[1,2,4]triazolo[4,3-a]quinoxalin-1-yl)-phenoxy]-propan-2-ol] |  | 611 nM |
| Cc1nc2ccccc2n2c(-c3cc(OC[C@H](C)O)ccc3Cl)nnc12 [Example 103, (S) 1-[4-Chloro-3-(4-methyl-[1,2,4]triazolo[4,3-a]quinoxalin-1-yl)-phenoxy]-propan-2-ol] | > 1000 nM |  |
| Cc1nc2ccccc2n2c(-c3cc(OC[C@@H](C)O)ccc3Cl)nnc12 [Example 104, (R) 1-[4-Chloro-3-(4-methyl-[1,2,4]triazolo[4,3-a]quinoxalin-1-yl)-phenoxy]-propan-2-ol] | > 1000 nM |  |
| Cc1nc2ccccc2n2c(-c3cc(OCC(O)c4ccccn4)ccc3Cl)nnc12 (centres unmarked) [Example 105, 2-[4-Chloro-3-(4-methyl-[1,2,4]triazolo[4,3-a]quinoxalin-1-yl)-phenoxy]-1-pyridin-2-yl-ethanol] | > 1000 nM |  |
| Cc1nc2ccccc2n2c(-c3cc(OCC(F)c4ccccn4)ccc3Cl)nnc12 (centres unmarked) [Example 106, 1-[2-Chloro-5-(2-fluoro-2-pyridin-2-yl-ethoxy)-phenyl]-4-methyl-[1,2,4]triazolo[4,3-a]quinoxaline] | 963 nM |  |
| Cc1nc2ccc(Cl)cc2n2c(-c3cc(O)ccc3Cl)nnc12 [Example 107, 4-Chloro-3-(8-chloro-4-methyl-[1,2,4]triazolo[4,3-a]quinoxalin-1-yl)-phenol] |  | 13 nM |
| COCCOc1ccc(F)c(-c2nnc3cnc4ccccc4n23)c1 [Example 109, 1-[2-Fluoro-5-(2-methoxy-ethoxy)-phenyl]-[1,2,4]triazolo[4,3-a]quinoxaline] |  | > 1000 nM |
| Cc1ccc2nc(C)c3nnc(-c4cc(OCCCC(F)(F)F)ccc4Cl)n3c2c1 [Example 110, 1-[2-Chloro-5-(4,4,4,-trifluoro-butoxy)-phenyl]-4,8-dimethyl-[1,2,4]triazolo[4,3-a]quinoxaline] |  | > 1000 nM |
| Cc1nc2cc(C#N)ccc2n2c(-c3cc(OCCCC(F)(F)F)ccc3Cl)nnc12 [Example 111, 7-Cyano-1-[2-chloro-5-(4,4,4,-trifluoro-butoxy)-phenyl]-4-methyl-[1,2,4]triazolo[4,3-a]quinoxaline] |  | > 1000 nM |
